Consider 18 compounds from patent US10927123B2, “Modulators of the beta-3 adrenergic receptor useful for the treatment or prevention of disorders related thereto” (Arena Pharmaceuticals, Inc., priority 2016, dated 2021).

As usually defined, the IC50 is the concentration that gives 50% inhibition.

Beta-3 Adrenergic Receptor, sequence (P13945 whole entry, species assumed): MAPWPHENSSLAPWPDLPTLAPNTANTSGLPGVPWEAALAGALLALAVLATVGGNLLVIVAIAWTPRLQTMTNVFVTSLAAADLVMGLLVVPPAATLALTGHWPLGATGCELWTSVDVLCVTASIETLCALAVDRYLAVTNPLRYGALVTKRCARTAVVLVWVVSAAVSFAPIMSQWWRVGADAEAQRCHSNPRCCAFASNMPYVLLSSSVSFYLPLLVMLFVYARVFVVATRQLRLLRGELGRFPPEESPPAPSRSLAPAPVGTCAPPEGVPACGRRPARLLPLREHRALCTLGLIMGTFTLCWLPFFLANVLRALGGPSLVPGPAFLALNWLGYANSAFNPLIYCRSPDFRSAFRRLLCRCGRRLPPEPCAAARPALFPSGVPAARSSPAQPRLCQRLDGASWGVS

This experiment deals with Beta-3 Adrenergic Receptor (Homo sapiens (Human), UniProt P13945). Briefly: HTRF cAMP antagonist assay (IC50 determination). It is filed as cell-based. To be noted: CHO-K1 cells stably expressing recombinant receptor; antagonism of isoproterenol at EC90; cAMP readout. The gist of the method:
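CHO-K1 cells stably expressing the recombinant receptor were preincubated with compound (10-point, 5-fold dilutions; top final typically 10 or 100 μM) in PBS with 1 mM IBMX, then stimulated with isoproterenol at its EC90 for 1 h at room temperature. cAMP was read by HTRF against an on-plate standard curve.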
(Time-resolved FRET reads energy transfer from a long-lived donor to a nearby acceptor.)
In the case of `COc1ccc(S(=O)(=O)N2CCC3(CC2)C[C@H](NC[C@H](O)COc2cccc(S(=O)(=O)C4CC4)c2)CO3)cc1-c1ccc(CN)cc1` [Compound 227, (S)-1-((S)-8-(4′-(aminomethyl)-6-methoxybiphenyl-3-ylsulfonyl)-1-oxa-8-azaspiro[4.5]decan-3-ylamino)-3-(3-(cyclopropylsulfonyl)phenoxy)propan-2-ol], the 50% inhibitory concentration (IC50) came out at 17.9 nM.

In the case of `COc1ccc(S(=O)(=O)N2CCC3(CC2)C[C@H](NC[C@H](O)COc2cccc(S(=O)(=O)C4CC4)c2)CO3)cc1-c1ccc(C2(N)CC2)cc1` [Compound 253, (S)-1-((S)-8-(4′-(1-aminocyclopropyl)-6-methoxybiphenyl-3-ylsulfonyl)-1-oxa-8-azaspiro[4.5]decan-3-ylamino)-3-(3-(cyclopropylsulfonyl)phenoxy)propan-2-ol], the IC50 was found to be 29.1 nM.

As to `CCn1cc(S(=O)(=O)N2CCC3(CC2)C[C@@H](NC[C@H](O)COc2cccc(S(=O)(=O)C4CC4)c2)CO3)c(=O)c2ccc(C)cc21` [Compound 318, 3-((R)-3-((S)-3-(3-(cyclopropylsulfonyl)phenoxy)-2-hydroxypropylamino)-1-oxa-8-azaspiro[4.5]decan-8-ylsulfonyl)-1-ethyl-7-methylquinolin-4(1H)-one], the IC50 was determined as 95.2 nM.

As to `O=S(=O)(CCO)c1cccc(OC[C@@H](O)CN[C@H]2COC3(CCN(S(=O)(=O)c4ccc5cccnc5c4)CC3)C2)c1` [Compound 98, (S)-1-(3-(2-hydroxyethylsulfonyl)phenoxy)-3-((R)-8-(quinolin-7-ylsulfonyl)-1-oxa-8-azaspiro[4.5]decan-3-ylamino)propan-2-ol], the IC50 turned out to be 89 nM.

As to `CS(=O)(=O)c1cccc(OC[C@@H](O)CNC2COC3(CCN(S(=O)(=O)c4cccc(C(F)(F)F)c4)CC3)C2)c1` (stereo partly drawn) [Compound 50, (2S)-1-(3-(methylsulfonyl)phenoxy)-3-(8-(3-(trifluoromethyl)phenylsulfonyl)-1-oxa-8-azaspiro[4.5]decan-3-ylamino)propan-2-ol], the IC50 was 42.2 nM.

For `CS(=O)(=O)c1cccc(OC[C@@H](O)CNC2COC3(CCN(S(=O)(=O)c4ccc5ncccc5c4)CC3)C2)c1` (stereo partly drawn) [Compound 75, (2S)-1-(3-(methylsulfonyl)phenoxy)-3-(8-(quinolin-6-ylsulfonyl)-1-oxa-8-azaspiro[4.5]decan-3-ylamino)propan-2-ol], the concentration for half-maximal inhibition (IC50) worked out at 26.7 nM.

Regarding `CS(=O)(=O)c1cccc(OC[C@@H](O)CNC2COC3(CCN(S(=O)(=O)c4cccc(-c5ccc(S(N)(=O)=O)cc5)c4)CC3)C2)c1` (stereo partly drawn) [Compound 42, 3′-(3-((S)-2-hydroxy-3-(3-(methylsulfonyl)phenoxy)propylamino)-1-oxa-8-azaspiro[4.5]decan-8-ylsulfonyl)biphenyl-4-sulfonamide], the IC50 was determined as 18.7 nM.

On to `COc1ccc(S(=O)(=O)N2CCC3(CC2)C[C@@H](NC[C@H](O)COc2cccc(S(=O)(=O)C4(CO)CC4)c2)CO3)cc1Br` [Compound 193, (S)-1-((R)-8-(3-bromo-4-methoxyphenylsulfonyl)-1-oxa-8-azaspiro[4.5]decan-3-ylamino)-3-(3-(1-(hydroxymethyl)cyclopropylsulfonyl)phenoxy)propan-2-ol], for which the 50% inhibitory concentration (IC50) was determined as 26.9 nM.

In the case of `COc1c(-c2ccc(CN)cc2)cccc1S(=O)(=O)N1CCC2(CC1)C[C@H](NC[C@H](O)COc1cccc(S(=O)(=O)CC(N)=O)c1)CO2` [Compound 206, 2-(3-((S)-3-((S)-8-(4′-(aminomethyl)-2-methoxybiphenyl-3-ylsulfonyl)-1-oxa-8-azaspiro[4.5]decan-3-ylamino)-2-hydroxypropoxy)phenylsulfonyl)acetamide], the half-inhibitory concentration (IC50) was found to be 403 nM.

Consider `CCCNCc1ccc(-c2cccc(S(=O)(=O)N3CCC4(CC3)C[C@H](NC[C@H](O)COc3cccc(S(=O)(=O)C5(CO)CC5)c3)CO4)c2)cc1` [Compound 244, (S)-1-(3-(1-(hydroxymethyl)cyclopropylsulfonyl)phenoxy)-3-((S)-8-(4′-((propylamino)methyl)biphenyl-3-ylsulfonyl)-1-oxa-8-azaspiro[4.5]decan-3-ylamino)propan-2-ol], for which the IC50 turned out to be 27.8 nM.

For `O=S(=O)(CCO)c1cccc(OC[C@@H](O)CN[C@H]2COC3(CCN(S(=O)(=O)c4cccc5cnccc45)CC3)C2)c1` [Compound 105, (S)-1-(3-(2-hydroxyethylsulfonyl)phenoxy)-3-((R)-8-(isoquinolin-5-ylsulfonyl)-1-oxa-8-azaspiro[4.5]decan-3-ylamino)propan-2-ol], the concentration for half-maximal inhibition (IC50) is 277 nM.

Regarding `COc1ccc(S(=O)(=O)N2CCC3(CC2)C[C@H](NC[C@H](O)COc2cccc(S(=O)(=O)C(F)(F)CO)c2)CO3)cc1-c1ccc(C2(N)CC2)cc1` [Compound 239, (S)-1-((S)-8-(4′-(1-aminocyclopropyl)-6-methoxybiphenyl-3-ylsulfonyl)-1-oxa-8-azaspiro[4.5]decan-3-ylamino)-3-(3-(1,1-difluoro-2-hydroxyethylsulfonyl)phenoxy)propan-2-ol], the 50% inhibitory concentration (IC50) turned out to be 30.9 nM.

As for `O=C1NCc2ncc(S(=O)(=O)N3CCC4(CC3)C[C@@H](NC[C@H](O)COc3cccc(S(=O)(=O)C5CC5)c3)CO4)cc21` [Compound 280, 3-((R)-3-((S)-3-(3-(cyclopropylsulfonyl)phenoxy)-2-hydroxypropylamino)-1-oxa-8-azaspiro[4.5]decan-8-ylsulfonyl)-6,7-dihydro-5H-pyrrolo[3,4-b]pyridin-5-one], the half-inhibitory concentration (IC50) came out at 96.4 nM.

For `CC(C)CS(=O)(=O)c1cccc(OC[C@@H](O)CNC2COC3(CCN(S(=O)(=O)c4ccc5ccccc5c4)CC3)C2)c1` (stereo partly drawn) [Compound 10, (2S)-1-(3-(isobutylsulfonyl)phenoxy)-3-(8-(naphthalen-2-ylsulfonyl)-1-oxa-8-azaspiro[4.5]decan-3-ylamino)propan-2-ol], the IC50 turned out to be 25.1 nM.

In the case of `CS(=O)(=O)c1cccc(OC[C@@H](O)CNC2COC3(CCN(S(=O)(=O)c4ccc5ccccc5c4)CC3)C2)c1` (stereo partly drawn) [Compound 1, (2S)-1-(3-(methylsulfonyl)phenoxy)-3-(8-(naphthalen-2-ylsulfonyl)-1-oxa-8-azaspiro[4.5]decan-3-ylamino)propan-2-ol], the concentration for half-maximal inhibition (IC50) was determined as 4.42 nM.

Regarding `CC(C)CS(=O)(=O)c1cccc(OC[C@@H](O)CN[C@H]2COC3(CCN(S(=O)(=O)c4ccc5ncccc5c4)CC3)C2)c1` [Compound 116, (S)-1-(3-(isobutylsulfonyl)phenoxy)-3-((R)-8-(quinolin-6-ylsulfonyl)-1-oxa-8-azaspiro[4.5]decan-3-ylamino)propan-2-ol], the IC50 was 320 nM.

Consider `COc1ccc(S(=O)(=O)N2CCC3(CC2)C[C@@H](NC[C@H](O)COc2cccc(S(=O)(=O)C4CC4)c2)CO3)cc1-c1ccc(C2(N)CC2)cc1` [Compound 255, (S)-1-((R)-8-(4′-(1-aminocyclopropyl)-6-methoxybiphenyl-3-ylsulfonyl)-1-oxa-8-azaspiro[4.5]decan-3-ylamino)-3-(3-(cyclopropylsulfonyl)phenoxy)propan-2-ol], for which the IC50 worked out at 27.9 nM.

`CCOc1ccc(-c2ccc(CCNC(C)=O)cc2)cc1S(=O)(=O)N1CCC2(CC1)C[C@@H](NC[C@H](O)COc1cccc(S(=O)(=O)C3(CO)CC3)c1)CO2` [Compound 175, N-(2-(4′-ethoxy-3′-((R)-3-((S)-2-hydroxy-3-(3-(1-(hydroxymethyl)cyclopropylsulfonyl)phenoxy)propylamino)-1-oxa-8-azaspiro[4.5]decan-8-ylsulfonyl)biphenyl-4-yl)ethyl)acetamide]: the IC50 was determined as 716 nM.
